Data set [1] in a line: Antiproliferative activity against human […] cells after 48 hrs by CCK-8 assay. The data set is classed as functional, cell-based. For orientation: Formazan colour is commonly taken as a measure of viable cells.
For another data set, the system named is A549. In words: Antiproliferative activity against human A549 cells after 48 hrs by CCK-8 assay. The settings on record: A549, 48 h. The format is functional, cell-based.
The subject of a further data set is MCF7. The data set can be described thus: Antiproliferative activity against human MCF7 cells after 48 hrs by CCK-8 assay. The data set is classed as functional, cell-based. The settings on record: MCF7, 48 h.
A short description of data set [2]: Toxicity in rat. The format is organism-based. The settings on record: in vivo.

SMILES strings stand for the structures.

As a reminder, the IC50 is the concentration that gives 50% inhibition. As usually defined, the LD50 is the dose expected to kill half of the subjects tested. Read a high LD50 as lower toxicity.

For `COc1cc(-c2nnc(-n3[se]c4ccccc4c3=O)s2)cc(OC)c1OC`, the IC50 was 7.15 µM in data set [1], 3.24 µM in the data set on A549 and 3.44 µM in the data set on MCF7.
The matching figures for `Cc1ccc(-c2nnc(-n3[se]c4ccccc4c3=O)s2)cc1`: 16.6 µM, 13.4 µM and 18.7 µM.
On to `O=c1c2ccccc2[se]n1-c1nnc(-c2cccc([N+](=O)[O-])c2)s1`, for which the values for the IC50 (in data set [1]; with A549; in the data set with MCF7) were 27.3 µM, 16.1 µM and 29.2 µM, respectively.
On to `O=c1c2ccccc2[se]n1-c1nnc(-c2ccccc2Cl)s1`, for which the concentration for half-maximal inhibition (IC50) in data set [1] is 40.2 µM; in the data set on A549, 10.1 µM; with MCF7, 4.43 µM.
With `Cc1ccccc1-c1nnc(-n2[se]c3ccccc3c2=O)s1`, the IC50 in data set [1] was 19.4 µM; in the data set with A549, 18.6 µM; in the data set on MCF7, 36.8 µM.
Regarding `COc1ccc(-c2nnc(-n3[se]c4ccccc4c3=O)s2)cc1`, the IC50 came out at 16.4 µM in data set [1], 5.93 µM in the data set with A549 and 10 µM in the data set with MCF7.
In the same order, the values of `O=c1c2ccccc2[se]n1-c1nnc(-c2cc([N+](=O)[O-])cc([N+](=O)[O-])c2)s1` are 21.6 µM, 17.9 µM and 37.8 µM.
Consider `O=c1c2ccccc2[se]n1-c1nnc(-c2ccccc2Br)s1`, for which the IC50 in data set [1] turned out to be 27.4 µM; in the data set on A549, 12.7 µM; in the data set with MCF7, 59.4 µM.
With `O=c1c2ccccc2[se]n1-c1nnc(-c2ccc(Cl)cc2)s1`, the 50% inhibitory concentration (IC50) is 24.4 µM in data set [1], 10.4 µM in the data set on A549 and 19.4 µM in the data set with MCF7.
Consider `O=c1c2ccccc2[se]n1-c1nnc(-c2ccccc2)s1`, for which the IC50 amounted to 20.5 µM in data set [1], 2.48 µM with A549 and 4.02 µM in the data set on MCF7.
`O=c1c2ccccc2[se]n1-c1nnc(-c2ccccc2[N+](=O)[O-])s1`: the IC50 was 22.5 µM in data set [1], 11.4 µM in the data set on A549 and 31.2 µM in the data set with MCF7.
For `COc1ccccc1-c1nnc(-n2[se]c3ccccc3c2=O)s1`, the IC50 in data set [1] amounted to 14.3 µM; in the data set on A549 it was 3.12 µM; with MCF7 it was 3.92 µM.
As for `Cc1cccc(-c2nnc(-n3[se]c4ccccc4c3=O)s2)c1`, the IC50 in data set [1] came to 17.8 µM; in the data set with A549, 14.8 µM; in the data set with MCF7 it was 19.9 µM.
For `O=c1c2ccccc2[se]n1-c1ccccc1` [EBSELEN], the half-maximal inhibitory concentration (IC50) in data set [1] stood at 18.3 µM; in the data set on A549, 3.75 µM; in the data set on MCF7, 15 µM. Moreover, the LD50 in data set [2] is 6180 mg/kg.
In the case of `O=c1c2ccccc2[se]n1-c1nnc(-c2ccc(Br)cc2)s1`, the half-maximal inhibitory concentration (IC50) in data set [1] stood at 68.2 µM; in the data set with A549, 39.1 µM; in the data set on MCF7, 43.3 µM.
On to `O=c1c2ccccc2[se]n1-c1nnc(-c2ccc(F)cc2)s1`, for which the IC50 was 42.9 µM in data set [1], 21.1 µM with A549 and 61.5 µM in the data set with MCF7.

Source of the values: ChEMBL document CHEMBL2021772, “Synthesis and antitumor-evaluation of 1,3,4-thiadiazole-containing benzisoselenazolone derivatives” (Bioorg Med Chem Lett, 2012).
